# Experimental data reported in PMC12880750, “Mechanistic insights and in vivo HIV suppression by the BRD4-targeting small molecule ZL0580” (PLOS Pathogens, 2026).
# Assays:
# [1] = tested on: BRD4 BD1; test: In vitro binding affinity (TR-FRET), BRD4 BD1; parameters: species or system human; details: from IC50 BD1 and BD2
# [2] = tested on: BRD4-knockout (KO) J-Lat cells; test: RT-qPCR of differentially expressed genes, BRD4-KO J-Lat cells; assay type: cell-based, human; details: same treatments
# Procedure: To validate the RNA-Seq results, RT-qPCR analysis was performed on a subset of differentially expressed genes (DEGs) (Fig 3E). Eight representative DEGs were selected based on statistical significance (adjusted p values) and their involvement in key pathways identified by GSEA, including lipid metabolism/cholesterol biosynthesis (HMGCS1, SQLE, DHCR7) and cytokine signaling (ITK and DUSP8). Relative gene expression levels were normalized to the housekeeping gene GAPDH. […] As an additional control, RT-qPCR was also performed on RNA isolated from BRD4-knockout (KO) J-Lat cells that received the same treatments. The generation and characterization of BRD4-KO J-Lat cells were described previously.
# RT-qPCR was performed as previously reported.
# [3] = In vivo toxicity study in ICR mice; parameters: key to Detail clinical observation during administration period (symptom number): 01. normal; 02. Cavity to observe; 03. Discolored skin; 04. Salivation; 05. Emesis; 06. Lacrimation; 07. ptosis; 08.Decreased respira tion; 09. Increased respiration; 10. anhelation; 11. Ataxia; 12. Loose stools; 13. Limb’s tremor; 14. Ey e; 15.Weakness; 16. Hyperreactivity; 17. Emaciation; 18. Whole body touch; 19. Cough; 20. At the injection site; 21. Alopecia genitalized; 22. convulsion; 23. Corna; 24. Death; key to Necropsy macroscopic (all organs examined): –: normal-; slight +; midrange ++; severe ++++; details: for Detail clinical observation during administration period (symptom number): all 10 animals (5 F, 5 M), Day 1 (twice) to Day 7; for Necropsy macroscopic (all organs examined): all organs listed
# Procedure: The acute toxicity studies were performed in both male and female ICR mice. The mice were divided into 3 groups (each group, n = 10, 5 males and 5 females). Group 1 was the vehicle group without ZL0580 treatment (po, 20% DMA + 20% Solutol HS15 + 60% HP-β-CD (20%, w/v)). Group 2, and group 3 mice were orally administrated with ZL0580 at doses of 100 mg/kg and 300 mg/kg [in 20% Dimethyl Acetamide (DMA) + 20% Solutol HS15 + 60% HP-β-CD (20%, w/v)], respectively. The body weights of all mice were weighed on day 1, 3, and 7 after treatments. The mean body weights of all mice in each group were calculated, and the standard curves were generated with the mean body weights of each group mice at different recorded time points. The food consumption masses of each group mice were recorded on day 1, 2, 3, 4, and 5 after treatments. The mean food consumption of all mice in each group was calculated, and the standard curves were generated with the mean food consumption of each group at different recorded time points.
# [4] = tested on: HIV-1 JR-CSF; test: Cell-associated HIV DNA in blood cells of Hu-mice; assay type: in vivo, CD34+ Hu-NSG mice (Hu-mice); details: qPCR, per 10^7 PB cells
# From the text: To assess whether ZL0580 or ART affects HIV DNA levels, we quantified cell-associated HIV DNA in the peripheral blood of Hu-mice after treatments. Blood cells collected at weeks 7, 11 and 13 were subjected to DNA extraction and quantification of HIV DNA by qPCR. […] By week 13, HIV DNA levels also remained similar across all groups (Fig 7C).
# Mice were 16-week-old at the initiation of the experiments. All mice received human CD34 + stem cells of a single donor and human immune cell reconstitution was confirmed for all mice. A total of 12 Hu-mice were initially included in the study with each tagged and assigned with a unique ID. […] Blood/plasma viral loads were monitored and quantified weekly by a single-step RT-qPCR until systemic HIV infection was established. […] Plasma samples were collected from mice either weekly or biweekly for quantification of viral loads (RNA copies). Blood cells were also collected at weeks 7 and 13 for quantification of cell-associated HIV DNA in blood. Mouse weights were monitored after treatment.
# Quantification of cell-associated HIV DNA in blood cells was performed by qPCR as previously described with modifications. Blood cells were counted and subjected to DNA extraction using the Qiagen QIAamp DNA Blood Mini Kit (QIAGEN). qPCR primers and probe: Forward: 5′-[…]-3′, Reverse: 5′-[…]-3′, Probe: 5’-/5HEX/[…]/ZEN/GCC […]/3IABkFQ. […]
# [5] = tested on: BRD4 BD2; parameters: method as in PMID 31329163; details: in vitro binding affinity; cited from earlier work
# [6] = ICR mice, 100 mg/kg or 300 mg/kg daily for 7 days
# [7] = ICR mice, 100 mg/kg or 300 mg/kg, end of the study
smiles,measurement,setting,value
O=C(Nc1ccc(C(F)(F)F)cc1)Nc1ccc(S(=O)(=O)N2CCC[C@H]2C(=O)Nc2ccccc2)cc1 [ZL0580],Selectivity (BRD4 BD1 vs BD2),[1],about 7 fold
same,Contrasting regulatory effects on representative DEGs in the absence of BRD4,[2],largely abolished
same,Detail clinical observation during administration period (symptom number),"[3]; Group 2, 100 mg/kg PO",01
same,Necropsy macroscopic (all organs examined),"[3]; Group 2, 100 mg/kg PO, all 10 animals",–
same,Detail clinical observation during administration period (symptom number),"[3]; Group 3, 300 mg/kg PO",01
same,Necropsy macroscopic (all organs examined),"[3]; Group 3, 300 mg/kg PO, females 801-805 shown",–
same,Tolerability in vivo,"[3]; ICR mice, 100 mg/kg or 300 mg/kg PO daily for 7 days",well tolerated
same,Changes in body weights,[3]; [6],little to no changes
same,Changes in food consumption,[3]; [6],little to no changes
same,Necropsy and gross pathological examinations,[3]; [7],no abnormalities
same,Serum biochemistry,[3]; [7],no abnormalities
same,Clinical signs of toxicity,"[3]; ICR mice, 100 mg/kg or 300 mg/kg, throughout the study",No clinical signs of toxicity were observed
same,"HIV DNA copies in peripheral blood cells at week 7, among groups incl. EV control",[4],no significant differences
same,IC50,[5],1070 nM
